Measured values published in patent US8865724B2, “Preparation of 2-methyl-4-amino-5(substituted-1H-1,2,3-triazolyl)methylpyrimidine derivatives and microbicidal activity thereof” (Central China Normal University, priority 2011, dated 2014).

What was measured:
[1] = system: Cucumber Angular Leaf Spot; assay: Microbicidal activity on cucumber seedlings, spray then inoculation (Embodiment 8); conditions: Cucumis sativus, read-out: Cucumber Angular Leaf Spot Average inhibition rate (%)
Experimental: (§1) (Pseudomonassyringaepv. tomato (Okabe) Young, Dye & Wilkie), Cucumber Angular Leaf Spot, Rice Sheath Blight Disease (Rhizoctonia solani), Corynespora Leaf Spot of Cucumber (Corynespora cassiicola), Downy Mildew of Cucumber (Cucumber Downy Mildew).
(§2) Testing agents and control agents were sprayed uniformly at A.M. of a sunshine day on the cucumber seminal leaves. After 2 hours, the leaves were inoculated with pathogenic microbes and cultured at humidity. […] Strip inoculation is used for Rice Sheath Blight Disease and phytophthora blight of pepper, in which the liquor was sprayed and after 2 hours, inoculation of strips was performed followed by culturing at humidity. After full occurrence of diseases in the control group, state of illness was examined according to grading standards, and a disease index and inhibition rate were calculated.

[2] = system: Rice Sheath Blight Disease; assay: Microbicidal activity, spray then strip inoculation (Embodiment 8); conditions: Oryza sativa, read-out: Rice Sheath Blight Disease Average inhibition rate (%)
Experimental: as §1, §2

[3] = system: Cucumber Angular Leaf Spot; assay: Microbicidal activity on cucumber seedlings, spray then inoculation (Embodiment 7); conditions: Cucumis sativus, read-out: Cucumber bacterial spot (%), controlling effect
Experimental: Testing Materials: Strain: Cucumber Angular Leaf Spot
Testing method: a cucumber seedling at the stage of 2 seminal leaves was inoculated by spraying a suspension of Cucumber Angular Leaf Spot. Testing agents and control agents were sprayed uniformly on the seminal leaves at A.M. of a sunshine day respectively. After 2 hours, the leaves were inoculated with pathogenic microbes and cultured at humidity. After full occurrence of disease in control group, state of illness was examined according to grading standards, and the controlling effects were measured.

tobacco brown spot = assay: microbe, parasite or virus in culture; format: cell-based, Alternaria alternate (Fries) Keissler; conditions: 48 h, testing concentration of 100 μg/g; Table 4; read-out: Tobacco brown spot Average inhibition rate (%)
gray mold of cucumber = assay: Spawn growth rate on agar plates (Embodiment 9); format: cell-based, Botrytis cinerea; conditions: 48 h, testing concentration of 100 μg/g; Table 4; read-out: Gray mold of cucumber Average inhibition rate (%)
anthracnose of cucumber = assay: Spawn growth rate on agar plates (Embodiment 9); format: cell-based, GloeosporiumorbiculareArs; conditions: 48 h; testing concentration of 100 μg/g; Table 5
[4] = system: Corynespora Leaf Spot of Cucumber; assay: Microbicidal activity on cucumber seedlings, spray then spore inoculation (Embodiment 8); conditions: Corynespora, in Cucumis sativus, read-out: Corynespora Leaf Spot of Cucumber Average inhibition rate (%)
Experimental: as §1, §2

early blight of tomato = assay: Spawn growth rate on agar plates (Embodiment 9); format: cell-based, Alternaria solania; conditions: 48 h; testing concentration of 100 μg/g; Table 5
Downy Mildew of Cucumber = assay: Microbicidal activity on cucumber seedlings, spray then spore inoculation (Embodiment 8); conditions: Cucumis sativus, read-out: Downy Mildew of Cucumber Average inhibition rate (%)
Experimental: as §1, §2

wheat scab = assay: microbe, parasite or virus in culture; format: cell-based, Gibberella zeae; conditions: 48 h, read-out: Wheat scab Average inhibition rate (%)

## Cc1ncc(Cn2cc(COC(=O)c3cc([N+](=O)[O-])cc([N+](=O)[O-])c3)nn2)c(N)n1 [Compound 35]
[1]
  pest or weed control at 500 µg/g: 80%
[2]
  pest or weed control at 500 µg/g: 50%
[3]
  pest or weed control at 500 µg/g: 45%
other
  melting point: 142 to 143 °C
Tobacco brown spot
  inhibition of growth at 100 µg/g: 75%
Gray mold of cucumber
  inhibition of growth at 100 µg/g: 49%
Anthracnose of cucumber
  inhibition of growth at 100 µg/g: 50%

## Cc1ncc(Cn2cc(COC(=O)c3cccc(Cl)c3)nn2)c(N)n1 [Compound 39]
[1]
  pest or weed control at 500 µg/g: 10%
[2]
  pest or weed control at 500 µg/g: 60%
[3]
  pest or weed control at 500 µg/g: 60%
other
  melting point: 165 to 166 °C
Tobacco brown spot
  inhibition of growth at 100 µg/g: 50%
Gray mold of cucumber
  inhibition of growth at 100 µg/g: 84%
Anthracnose of cucumber
  inhibition of growth at 100 µg/g: 52%

## Cc1ncc(Cn2cc(COc3cccc(C(F)(F)F)c3)nn2)c(N)n1 [Compound 4]
[1]
  pest or weed control at 500 µg/g: 60%
[4]
  pest or weed control at 500 µg/g: 70%
Early blight of tomato
  inhibition of growth at 100 µg/g: 51%
[2]
  pest or weed control at 500 µg/g: 60%
Downy Mildew of Cucumber
  pest or weed control at 500 µg/g: 35%
other
  melting point: 160 to 161 °C
Tobacco brown spot
  inhibition of growth at 100 µg/g: 66%
Gray mold of cucumber
  inhibition of growth at 100 µg/g: 77%
Anthracnose of cucumber
  inhibition of growth at 100 µg/g: 65%

## Cc1ncc(Cn2cc(COc3ccc(Cl)cc3)nn2)c(N)n1 [Compound 2]
[1]
  pest or weed control at 500 µg/g: 60%
[4]
  pest or weed control at 500 µg/g: 55%
[2]
  pest or weed control at 500 µg/g: 80%
Wheat scab
  inhibition of growth at 100 µg/g: 51%
Downy Mildew of Cucumber
  pest or weed control at 500 µg/g: 75%
other
  melting point: 168 to 170 °C
Tobacco brown spot
  inhibition of growth at 100 µg/g: 52%
Gray mold of cucumber
  inhibition of growth at 100 µg/g: 73%
Anthracnose of cucumber
  inhibition of growth at 100 µg/g: 50%

## Cc1ncc(Cn2cc(COC(=O)c3ccc([N+](=O)[O-])cc3)nn2)c(N)n1 [Compound 32]
Early blight of tomato
  inhibition of growth at 100 µg/g: 63%
[2]
  pest or weed control at 500 µg/g: 60%
[3]
  pest or weed control at 500 µg/g: 60%
Tobacco brown spot
  inhibition of growth at 100 µg/g: 87%
Gray mold of cucumber
  inhibition of growth at 100 µg/g: 59%
Anthracnose of cucumber
  inhibition of growth at 100 µg/g: 67%
